Values of other authors as cited in patent US20040235879A1, “Method for treatment of chemotherapy-induced diarrhea” (priority 2003, published 2004).
Where a name gives a salt, the structure may show the parent alone.

How the values were obtained:
[1] = target: P-gp (ABCB1) (Homo sapiens, UniProt P08183); settings: cited from earlier work
[2] = target: T1, BCRP/MXR/ABCP (ABCG2) (Homo sapiens, UniProt Q9UNQ0); settings: cited from earlier work
T1 sequence (Q9UNQ0 1-655): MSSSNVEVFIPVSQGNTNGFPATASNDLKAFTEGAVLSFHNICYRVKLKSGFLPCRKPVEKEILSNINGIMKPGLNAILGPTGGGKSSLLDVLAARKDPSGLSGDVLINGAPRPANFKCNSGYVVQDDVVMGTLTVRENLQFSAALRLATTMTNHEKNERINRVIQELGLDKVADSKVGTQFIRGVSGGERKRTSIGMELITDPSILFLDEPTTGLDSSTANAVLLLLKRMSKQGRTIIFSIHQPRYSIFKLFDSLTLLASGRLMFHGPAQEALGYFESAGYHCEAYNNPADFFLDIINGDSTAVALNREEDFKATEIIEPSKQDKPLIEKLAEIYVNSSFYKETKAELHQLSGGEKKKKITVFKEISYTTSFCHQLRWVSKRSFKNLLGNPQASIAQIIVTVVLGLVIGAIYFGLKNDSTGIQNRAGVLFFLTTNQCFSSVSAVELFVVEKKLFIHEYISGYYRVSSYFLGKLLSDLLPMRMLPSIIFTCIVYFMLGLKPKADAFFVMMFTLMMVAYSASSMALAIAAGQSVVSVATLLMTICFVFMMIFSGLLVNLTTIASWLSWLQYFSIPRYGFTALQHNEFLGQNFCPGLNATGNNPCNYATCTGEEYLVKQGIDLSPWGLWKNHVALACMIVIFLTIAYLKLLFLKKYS

[3] = target: MRP2 (ABCC2) (Homo sapiens, UniProt Q92887); settings: cited from earlier work
Sequence of MRP2 (ABCC2) (Q92887 whole entry, species assumed): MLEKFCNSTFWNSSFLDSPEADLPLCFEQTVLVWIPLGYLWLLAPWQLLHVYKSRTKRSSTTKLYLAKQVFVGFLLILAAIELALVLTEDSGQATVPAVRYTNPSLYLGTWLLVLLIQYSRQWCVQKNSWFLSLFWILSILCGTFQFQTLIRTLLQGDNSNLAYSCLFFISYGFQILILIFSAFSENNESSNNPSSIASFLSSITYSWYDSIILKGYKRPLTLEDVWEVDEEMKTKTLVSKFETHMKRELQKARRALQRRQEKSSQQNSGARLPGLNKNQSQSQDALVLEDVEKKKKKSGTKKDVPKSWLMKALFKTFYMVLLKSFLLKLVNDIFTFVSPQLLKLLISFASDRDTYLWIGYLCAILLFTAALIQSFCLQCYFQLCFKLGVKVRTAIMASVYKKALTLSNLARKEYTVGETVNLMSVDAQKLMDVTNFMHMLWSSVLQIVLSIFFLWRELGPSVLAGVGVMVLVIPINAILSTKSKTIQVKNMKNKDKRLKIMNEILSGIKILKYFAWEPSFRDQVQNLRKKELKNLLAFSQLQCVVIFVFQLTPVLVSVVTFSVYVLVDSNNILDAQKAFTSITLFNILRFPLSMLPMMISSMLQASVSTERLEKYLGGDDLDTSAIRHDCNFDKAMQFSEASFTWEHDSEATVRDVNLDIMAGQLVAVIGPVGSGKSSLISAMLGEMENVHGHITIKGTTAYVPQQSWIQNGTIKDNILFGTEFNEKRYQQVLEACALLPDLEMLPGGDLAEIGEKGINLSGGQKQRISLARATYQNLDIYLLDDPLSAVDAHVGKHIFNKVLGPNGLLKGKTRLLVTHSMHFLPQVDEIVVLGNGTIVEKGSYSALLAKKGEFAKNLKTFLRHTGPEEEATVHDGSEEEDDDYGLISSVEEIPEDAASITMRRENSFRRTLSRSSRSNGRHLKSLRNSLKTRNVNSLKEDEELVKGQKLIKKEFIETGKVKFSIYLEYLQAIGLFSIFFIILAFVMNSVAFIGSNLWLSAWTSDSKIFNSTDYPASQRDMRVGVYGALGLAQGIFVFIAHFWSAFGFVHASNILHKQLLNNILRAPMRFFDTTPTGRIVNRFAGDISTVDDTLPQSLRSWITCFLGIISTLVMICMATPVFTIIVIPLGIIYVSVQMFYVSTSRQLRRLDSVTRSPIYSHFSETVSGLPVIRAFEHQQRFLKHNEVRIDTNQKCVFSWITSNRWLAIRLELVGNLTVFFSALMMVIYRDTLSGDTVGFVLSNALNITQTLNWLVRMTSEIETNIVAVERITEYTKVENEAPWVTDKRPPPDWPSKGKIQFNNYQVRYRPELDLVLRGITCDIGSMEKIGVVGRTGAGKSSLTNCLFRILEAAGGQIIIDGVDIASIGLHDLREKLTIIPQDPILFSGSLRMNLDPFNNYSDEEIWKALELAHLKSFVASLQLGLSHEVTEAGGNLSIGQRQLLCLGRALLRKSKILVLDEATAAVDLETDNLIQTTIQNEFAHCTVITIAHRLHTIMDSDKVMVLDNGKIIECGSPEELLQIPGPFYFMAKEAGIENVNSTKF

[4] = cited from earlier work

Sequence of P-gp (ABCB1) (P08183 whole entry, species assumed): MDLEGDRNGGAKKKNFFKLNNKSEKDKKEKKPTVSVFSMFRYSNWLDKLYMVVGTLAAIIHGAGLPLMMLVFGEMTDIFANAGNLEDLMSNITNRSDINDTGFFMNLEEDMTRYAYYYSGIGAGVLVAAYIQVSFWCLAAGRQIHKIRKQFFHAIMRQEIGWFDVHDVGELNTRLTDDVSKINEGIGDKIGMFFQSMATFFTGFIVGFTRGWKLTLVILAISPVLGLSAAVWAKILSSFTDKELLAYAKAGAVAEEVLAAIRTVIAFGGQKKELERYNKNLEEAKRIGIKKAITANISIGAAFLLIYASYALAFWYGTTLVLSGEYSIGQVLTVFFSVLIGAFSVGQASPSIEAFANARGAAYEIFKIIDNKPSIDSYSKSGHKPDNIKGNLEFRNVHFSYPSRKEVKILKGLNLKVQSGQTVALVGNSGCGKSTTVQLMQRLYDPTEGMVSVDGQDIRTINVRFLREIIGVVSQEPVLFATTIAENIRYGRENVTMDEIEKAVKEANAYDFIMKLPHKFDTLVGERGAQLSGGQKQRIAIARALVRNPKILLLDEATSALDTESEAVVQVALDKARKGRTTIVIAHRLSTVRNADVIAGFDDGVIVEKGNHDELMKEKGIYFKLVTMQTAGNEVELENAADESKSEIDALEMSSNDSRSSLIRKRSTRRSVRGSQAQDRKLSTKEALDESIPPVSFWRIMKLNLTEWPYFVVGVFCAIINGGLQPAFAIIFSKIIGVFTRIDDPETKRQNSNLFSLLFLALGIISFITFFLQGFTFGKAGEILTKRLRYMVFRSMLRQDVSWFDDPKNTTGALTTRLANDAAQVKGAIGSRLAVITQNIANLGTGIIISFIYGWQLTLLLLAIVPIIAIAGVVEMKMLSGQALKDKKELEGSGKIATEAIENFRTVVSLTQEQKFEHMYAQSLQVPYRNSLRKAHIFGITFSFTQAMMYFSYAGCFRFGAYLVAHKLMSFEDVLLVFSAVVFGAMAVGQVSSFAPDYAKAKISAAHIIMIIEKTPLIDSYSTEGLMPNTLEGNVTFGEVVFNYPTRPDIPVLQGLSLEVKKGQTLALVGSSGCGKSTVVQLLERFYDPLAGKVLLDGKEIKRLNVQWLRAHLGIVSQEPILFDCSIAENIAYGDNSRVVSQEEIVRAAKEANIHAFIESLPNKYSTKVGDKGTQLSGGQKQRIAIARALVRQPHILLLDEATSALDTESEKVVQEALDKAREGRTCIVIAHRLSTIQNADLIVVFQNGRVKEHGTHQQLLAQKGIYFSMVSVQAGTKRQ

Structure (SMILES): CCc1c2c(nc3ccc(OC(=O)N4CCC(N5CCCCC5)CC4)cc13)-c1cc3c(c(=O)n1C2)COC(=O)[C@]3(O)CC [irinotecan, [1,4′-Bipiperidine]-1′-carboxylic acid (4S)-4,11-diethyl-3,4,12,14-tetrahydro-4-hydroxy-3,14-dioxo-1H-pyrano[3′,4′:6,7]indolizino[1,2-b]quinolin-9-yl ester]
- substrate of P-gp (ABCB1) [1]: substrate
- substrate of BCRP/MXR/ABCP (ABCG2) [2]: substrate
- substrate of MRP2 (ABCC2) [3]: substrate

Structure (SMILES): O=c1[nH]cc(F)c(=O)[nH]1 [5-fluorouracil]
- patients with severe or life-threatening diarrhea ([4]; 5-fluorouracil alone): About 8%
- frequency of severe or life-threatening diarrhea ([4]; 5-fluorouracil combined with leucovorin): up to 25%

Structure (SMILES): CCc1c2c(nc3ccc(OC(=O)N4CCC(N5CCCCC5)CC4)cc13)-c1cc3c(c(=O)n1C2)COC(=O)[C@]3(O)CC [CPT-11, Irinotecan hydrochloride]
- patients requiring hospitalization because of diarrhea ([4]; diarrhea alone or in combination with other gastrointestinal disturbances): more than 18%
